Earlier results, collected in patent US9943402B2, “Micropatterned intraocular implant” (InSight Innovations, LLC, priority 2008, dated 2018).

Tested on: posterior capsule opacification (PCO)
Details: topical treatment after phacoemulsification

| SMILES | inhibition of PCO (in words) |
| --- | --- |
| COc1ccc2c(c1)c(CC(=O)O)c(C)n2C(=O)c1ccc(Cl)cc1 [indomethacin] | do not appear to inhibit PCO |
| O=C(O)Cc1ccccc1Nc1c(Cl)cccc1Cl [diclofenac] | do not appear to inhibit PCO |
